From paper PMC5675611, “GZD824 suppresses the growth of human B cell precursor acute lymphoblastic leukemia cells by inhibiting the SRC kinase and PI3K/AKT pathways” (Oncotarget, 2016) come the findings set out here.

Common to all, as to type: cell-based, human
Test [1] has as its system phosphorylated AKT (Ser473). The experiment in a line: Western blot of NALM6 cells. Particulars: NALM6, 1μM or 3μM, 24 hours. As to the method: (§1) Figure 6 GZD824 inhibits PI3K/AKT signaling in pre-B ALL cells A. […] Bars represent the mean percentages of AnnexinV+ cells in each group. B. Primary pre-B ALL cells from spleen of P#1 xenograft mouse treated with DMSO, GZD824 (1μM), IGF-1 (10ng/ML), or both. Bars represent the mean percentages of AnnexinV+ cells in each group. C. Western blot analysis of NALM6 cells. Cells were treated with DMSO, GZD824 (1μM), or GZD824 (3μM) for 24 hours. Lysates were analyzed with antibodies against IRS1, phosphate AKT, and AKT. D. Western blot analysis of primary pre-B ALL cells. Primary cells treated with GZD824 (1μM), IGF-1 (10ng/ML), or both for 24 hours. Lysates were analyzed with antibodies against Irs1, phosphate AKT, and AKT. For Western blot analysis, 30 μg of total protein extracts prepared from NALM6 or primary pre-B ALL cells from SP of PDX mice were separated on SDS-PAGE and transferred to a PVDF membrane (Bio-Rad, Hercules, CA, USA). […]

The test system of a further test is IRS1. The experiment in a line: Western blot of NALM6 cells. Particulars: NALM6, 1μM or 3μM, 24 hours. As for the experimental part: as §1
Another test deals with SUPB15 cells. Put plainly: Annexin V apoptosis flow cytometry. Particulars: 24 h. As for the experimental part:
Human pre-B ALL cell lines NALM6 and SUPB15 were purchased from American Type Culture Collection (ATCC, Maryland, USA). All pre-B ALL cell lines were maintained in cell culture media and conditions as recommended by the ATCC. Cells were treated with GZD824 for 24 hours. GZD824 (3μM, 1μM, or 0.5μM) was used in the experiments unless otherwise noted. NALM6 and SUPB15 cells were maintained in RPMI-1640 medium (Gibco, New York, NY, USA) with 10% fetal bovine serum (Biochrom, Melbourne, Australia). For identification of apoptotic cells among NALM6, SUPB15, and primary pre-B ALL cells, the GZD824-treated cells were stained with Annexin V Apoptosis Detection Kit (88-8007, BD ebioscience, CA, USA) according to the manufacturer's instructions (Affymetrix ebioscience, CA, USA) and then subjected to flow cytometric analysis by the Accuri™ C6 (BD Biosciences, CA, USA). For the in vitro drug sensitivity test in Figure 6A, the human CD45+ cells in spleen and bone marrow from sick mice account for over 95% of the total. We enriched human CD45+ cells in PB by MACS according to the manufacturer's instruction. After the enrichment, the purity of human CD45+ cell in PB reached 95%. […] All data were analyzed with FlowJo software (Tree Star, Inc., Ashland, USA).

`Cc1ccc(C(=O)Nc2ccc(CN3CCN(C)CC3)c(C(F)(F)F)c2)cc1C#Cc1cnc2[nH]ncc2c1` [GZD824]: the “levels of phosphorylated AKT (Ser473)” value in test [1] is on record as “reduced”. For the same compound, the “levels of IRS1 protein” value in the test on IRS1 is reported as “reduced”. The apoptotic rate result in the test on SUPB15 cells (SUPB15, 1μM) is listed as “moderate”. Besides, in the test with SUPB15 cells (SUPB15, 3μM), the “cells undergoing apoptosis (AnnexinV+)” value stood at 48.3%.
